Series [1] has as its system HIV-1 BaL. As to the kind of experiment: Intracellular strong-stop HIV DNA in PM-1 cells infected with HIV-1 BaL. To be noted: 4 hrs, CVC 20 nM, MVC 50 nM. In kind it is cell-based. How it is done: Both drugs were incubated with PM-1 cells for 1 hr at 37 C prior to the addition of virus. 500 ng of p24 antigen of HIV-1 BaL were incubated per 5×10^5 cells in 1 ml of R10 media. Virus only controls, described as “no cell” in the text, were used to measure viral decay. Viral adsorption was measured in the no-drug controls, whereby 500 ng of p24 Ag of HIV-1 Bal were added per 5×10^5 PM-1 cells that were pre-incubated at 37 C for 1 hr in the absence of drug treatment. Each drug treatment and control was performed in duplicate. Viral RNA was extracted from 140 μl of supernatant fluid using the QIAamp Viral RNA mini kit according to manufacturer's instructions. Samples were stored at −80 C until analysis. Supernatant viral loads were measured using quantitative real-time reverse transcription PCR (qRT-PCR) with the primers US1SSF (5′-[…]-3′), US1SSR (5′-[…]-3′) and US1SS probe (5′-(FAM) […]) and the Invitrogen qRT-PCR Supermix Kit. […] RNA copy number was quantified by use of 10-fold serial dilutions of pBaL/wt to generate standard curves for each assay and calibrated against samples with known copy numbers from previous studies.
Intracellular DNA qPCR. Total DNA was extracted, quantified, and stored at −80 C. Intracellular strong-stop DNA levels were quantified with the US1SS primer/probe set described above. […]

Series [2] concerns the target T1, CCR5 (Homo sapiens, UniProt P51681). As to the kind of experiment: RANTES-induced CCR5 internalization / CCR5 receptor occupancy in PBMCs (flow cytometry). In kind it is cell-based. How it is done: (§1) The capacity of each drug to inhibit CCR5 or CCR2 internalization was evaluated. Cell-surface expression of CCR5 and CCR2 was assessed by flow cytometry, and fluorescence values were converted into molecules of equivalent soluble fluorescence (MESF).
Background: In flow cytometry, cells or beads pass a laser one at a time.

Series [3] relates to HIV-1 BaL. Kind of series: Extracellular virus (viral RNA, p24) in culture fluids of PM-1 cells exposed to HIV-1 BaL. The note with it: 4 hrs post-infection, CVC 20 nM, MVC 50 nM. Format: cell-based. From the text:
Cells. PM-1 cells that express CD4, CCR5, and CXCR4 were maintained in RPMI-1640 medium containing 10% fetal bovine serum (R10 medium) at 37C, 5% CO2. 293T cells used for transfection were maintained in DMEM at 10% FBS, L-glutamine, and antibiotics (D10 medium) at 37C, 5% CO2. Virus Stocks. HIV-1 BaL virus was produced by transfecting 293T cells with the plasmid pWT/BaL. Lipofectamine 2000 was used as a transfection agent. Culture supernatants were collected at 48 hrs post-transfection, filtered through a 0.45 μm pore filter, and treated with 50 units of benzonase per ml of virus stock for 20 minutes at 37C to remove contaminating plasmid DNA. Virus stocks were frozen at −80C to halt benzonase activity. Benzonase-treated virus stocks were propagated in cord blood mononuclear cells (CBMCs). CBMCs were stimulated for 72 h with phytohemagluttinin (PHA-M) in R10 medium prior to infection with HIV-1 BaL. The viral amplification culture was subsequently grown in R10 supplemented with interleukin 2 (IL-2) and incubated at 37C, 5% CO2.
Both drugs were incubated with PM-1 cells for 1 hr at 37 C prior to the addition of virus. 500 ng of p24 antigen of HIV-1 BaL were incubated per 5×10^5 cells in 1 ml of R10 media. Virus only controls, described as “no cell” in the text, were used to measure viral decay. Viral adsorption was measured in the no-drug controls, whereby 500 ng of p24 Ag of HIV-1 Bal were added per 5×10^5 PM-1 cells that were pre-incubated at 37 C for 1 hr in the absence of drug treatment. Each drug treatment and control was performed in duplicate. Viral RNA was extracted from 140 μl of supernatant fluid using the QIAamp Viral RNA mini kit according to manufacturer's instructions. Samples were stored at −80 C until analysis. Supernatant viral loads were measured using quantitative real-time reverse transcription PCR (qRT-PCR) with the primers US1SSF (5′-[…]-3′), US1SSR (5′-[…]-3′) and US1SS probe (5′-(FAM) […]) and the Invitrogen qRT-PCR Supermix Kit. Cycling parameters were: 50° C. for 15 minutes, 95° C. for 10 minutes, followed by 50 cycles of 95° C. for 15 seconds, and 60° C. for 1 minute. All values are the result of replicate testing over 2 independent experiments. RNA copy number was quantified by use of 10-fold serial dilutions of pBaL/wt to generate standard curves for each assay and calibrated against samples with known copy numbers from previous studies.

For series [4], the target named is T1, CCR5. Kind of series: Inhibition of chemokine binding to CCR5-expressing CHO cells.
The next series has as its target T2, CCR2 (Homo sapiens, UniProt P41597).
T2 construct: endogenous in cells; host or cells: monocytes within PBMCs from HIV+ and HIV- subjects
T2 sequence (P41597 1-360 isoform P41597-2): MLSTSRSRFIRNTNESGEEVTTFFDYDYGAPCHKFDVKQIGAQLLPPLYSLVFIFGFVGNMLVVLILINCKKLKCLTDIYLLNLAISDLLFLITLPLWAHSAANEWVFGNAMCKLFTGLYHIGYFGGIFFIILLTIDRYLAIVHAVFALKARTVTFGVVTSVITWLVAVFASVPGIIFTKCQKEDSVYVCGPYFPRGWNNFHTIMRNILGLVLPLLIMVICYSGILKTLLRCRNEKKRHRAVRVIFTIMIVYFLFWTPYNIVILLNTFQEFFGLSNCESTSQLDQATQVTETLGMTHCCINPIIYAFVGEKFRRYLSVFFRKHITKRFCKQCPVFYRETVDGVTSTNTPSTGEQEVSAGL
Kind of series: MCP-1-induced CCR2 internalization / CCR2 receptor occupancy on monocytes (flow cytometry). Format: cell-based. The protocol:
as §1

Series [5] in a line: Solubility of cenicriviroc mesylate in solvents and aqueous solution. In kind it is physicochemical. An excerpt:
In one embodiment, the acid addition salt of cenicriviroc is cenicriviroc mesylate, e.g., (5)-8-[4-(2-Butoxyethoxy)phenyl]-1-isobutyl-N-(4-{[(1-propyl-1H-imidazol-5-yl)methyl]sulfinyl}phenyl)-1,2,3,4-tetrahydro-1-benzazocine-5-carboxamide monomethanesulfonoate. In one embodiment, the cenicriviroc mesylate is a crystalline material, such as a pale greenish-yellow crystalline powder.

Series [6] deals with thioglycollate-induced peritonitis (monocyte/macrophage and leukocyte recruitment). As to the kind of experiment: Mouse thioglycollate-induced peritonitis model: peritoneal lavage cell counts, body weight. Format: in vivo. The protocol:
Summary: The mouse thioglycollate induced peritonitis model is a commonly used preclinical model to assess the recruitment of […] cells and to assess the activation of macrophages.
Dexamethasone was used as a positive control in this experiment as it is a corticosteroid known to reduce inflammation in a variety of animal models. Murine inflammation models indicate that the effective dose range for dexamethasone, when administered orally, is 0.3 to 3 mg/kg QD. On this basis, an intermediate dose of 1 mg/kg was chosen for this particular study.
The lavage was repeated with a second injection of 2.5 mL via the initial puncture site and the samples were pooled for each animal.
The lavage fluid was placed on wet ice pending processing for total and differential cell counts using the Advia analyzer. Following the lavage collection, a blood sample (0.7 mL) was collected from each mouse by intracardiac puncture or from the vena cava (collection time was recorded). 0.5 mL of blood was placed in an EDTA tube, transferred to clinical pathology and analyzed for differential cell counts using the Advia analyzer. 0.2 mL of blood was placed in a K2EDTA tube and processed to plasma. The plasma was collected by centrifugation (3000 rpm for 10 minutes at 4° C.) and placed on dry ice. […] After blood collection, the animals were then exsanguinated by sectioning of the abdominal aorta.
Statistical Analysis: One-way ANOVA with post-hoc Dunnett's statistical analysis was performed on differential cell counts obtained from lavage and blood samples. The analysis was performed in comparison to Group 2.

T1 sequence (P51681 whole entry): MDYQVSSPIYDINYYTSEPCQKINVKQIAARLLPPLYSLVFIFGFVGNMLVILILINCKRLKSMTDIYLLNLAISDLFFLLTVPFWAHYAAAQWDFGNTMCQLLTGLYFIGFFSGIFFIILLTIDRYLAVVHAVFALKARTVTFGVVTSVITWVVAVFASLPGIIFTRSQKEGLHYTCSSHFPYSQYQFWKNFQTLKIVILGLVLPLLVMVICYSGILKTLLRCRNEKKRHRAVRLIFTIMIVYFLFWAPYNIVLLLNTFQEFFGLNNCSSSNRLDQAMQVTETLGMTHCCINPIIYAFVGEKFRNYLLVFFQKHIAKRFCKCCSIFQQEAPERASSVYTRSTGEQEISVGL

For the compound Maraviroc [MVC, reference compound], in the series on HIV-1 BaL [1], the “Relative intracellular strong-stop HIV DNA level compared to no drug control” value was 0.02. For the same compound, the figures for the “CCR5 receptor occupancy at saturation” value at CCR5 [2] (CD4+ T cells) and at CCR5 [2] (CD8+ T cells) were ~86% and ~87%, respectively. The “Effective concentration at which saturation of CCR5 was reached” value at CCR5 [2] (CD4+ T cells) and on CCR5 [2] (CD8+ T cells) was 12.5 nM each time. Besides, on CCR5 [2] (in the absence of RANTES), the “Cell-surface expression of CCR5” value is on record as “increased cell-surface expression of CCR5”. For the same compound, the “p24 antigen level in culture fluids” value with HIV-1 BaL [3] (baseline 506 ng/ml) was found to be 520 ng/mL. In addition, in the series with HIV-1 BaL [3] (baseline 1.19×10^10), the “Viral RNA in culture fluids” value is reported as 1.67×10^10 copies/ml.

In the case of `CCCCOCCOc1ccc(-c2ccc3c(c2)C=C(C(=O)Nc2ccc(SC)cc2)CCCN3CC(C)C)cc1` [M-II], the “IC50, inhibition of RANTES binding to CCR5-expressing cells” value on CCR5 [4] (CHO cells) was “no effect on binding of RANTES”.

For `CCCCOCCOc1ccc(-c2ccc3c(c2)C=C(C(=O)Nc2ccc(S(=O)(=O)Cc4cncn4CCC)cc2)CCCN3CC(C)C)cc1` [M-I], the “IC50 relative to the IC50 of CVC (RANTES binding to CCR5)” value at CCR5 [4] is “approximately 2 fold”. For the same compound, the IC50 – broadly, the midpoint of a concentration-inhibition curve – on CCR5 [4] (CHO cells, read-out: IC50, inhibition of RANTES binding to CCR5-expressing cells) worked out at 6.5 nM.

Regarding `CSc1ccc(C(=O)N[C@@H]2CCCC[C@@H]2NC(=O)CNC(=O)c2cc(C(F)(F)F)ccc2NC(=O)NC(C)C)cc1` [BMS-22, reference compound], the “Concentration required to reach >80% CCR2 receptor occupancy (average)” value on CCR2 was found to be 18 nM. For the same compound, the CCR2 cell-surface expression result on CCR2 (in the absence of MCP-1) is given as “slightly increased CCR2 cell-surface expression”.

As for “(5)-8-[4-(2-Butoxyethoxy)phenyl]-1-isobutyl-N-(4-{[(1-propyl-1H-imidazol-5-yl)methyl]sulfinyl}phenyl)-1,2,3,4-tetrahydro-1-benzazocine-5-carboxamide monomethanesulfonoate [cenicriviroc mesylate]”, the Solubility entry in series [5] (99.5% ethanol) is “sparingly soluble”; in series [5] (acetonitrile, 1-octanol, tetrahydrofuran) it was “slightly soluble”; in series [5] (ethyl acetate and diethylether), “practically insoluble”; in series [5] (glacial acetic acid, methanol, benzyl alcohol, dimethylsulfoxide, N,N-dimethylformamide) it was “freely soluble”; in series [5] (pyridine and acetic anhydride) it was “soluble”. Further, the “Solubility in aqueous solution” value in series [5] (pH 1 to 2) is reported as “freely soluble”; in series [5] (pH 3), “sparingly soluble”; in series [5] (pH 4 to 13 and in water), “practically insoluble”.

As to `C[C@@H]1C[C@H]2[C@@H]3CCC4=CC(=O)C=C[C@]4(C)[C@@]3(F)[C@@H](O)C[C@]2(C)[C@@]1(O)C(=O)CO` [Dexamethasone, dexamethasone, reference compound], in series [6] (Group 7, 1 mg/kg oral), the “Decrease in monocytes in peritoneal lavage vs thioglycollate control” value stood at 38.1% and the “Decrease in total leukocyte counts in peritoneal lavage vs thioglycollate control” value is 26.6%. In addition, in series [6] (mouse, in vivo), the “Body weights, Days 1 to 6” value is “decreased slightly”.
